Literature values, collected in patent publication US8618066B1 (priority 2003, dated 2013).
Entries after “also recorded” stand apart in the source; their conditions may differ. No end group written: not given here.

system: Gram+ & Gram− bacteria, fungi, virus, mammalian/cancer cells; conditions: cited from earlier work

Substance	Activity
Protegrin 2: peptide, source Pig (RGGRLCYCRRRFCICV; Protegrin 2; listed as Sus scrofa)	Gram+ & Gram−, Virus, Fungi
Protegrin 3: peptide, source Pig (RGGGLCYCRRRFCVCVGR; Protegrin 3; listed as Sus scrofa)	Gram+ & Gram−, Virus, Fungi
Protegrin 4: peptide, source Pig (RGGRLCYCRGWICFCVGR; Protegrin 4; listed as Sus scrofa)	Gram+ & Gram−, Virus, Fungi
Protegrin 5: peptide, source Pig (RGGRLCYCRPRFCVCVGR; Protegrin 5; listed as Sus scrofa)	Gram+ & Gram−, Virus, Fungi
Pseudin 1: peptide, source Paradoxical frog (GLNTLKKVFQGLHEAIKLINNHVQ; Pseudin 1; listed as Pseudis paradoxa)	Gram+ & Gram−, Fungi
Pseudo-hevein (Minor hevin): peptide, source Para rubber tree (EQCGRQAGGKLCPNNLCCSQYGWCGSSDDYCSPSKNCQSNCKGGG; Pseudo-hevein (Minor hevein); listed as Hevea brasiliensis)	Fungi
RQRVEELSKFSKKGAAARRRK [Misgurin]	Gram+ & Gram−, Fungi
Ranalexin-1CB: peptide, source Gree frog (FLGGLMKAFPAIICAVTKKC; Rana clamitans; Ranalexin-1CB)	Gram+ & Gram−, Fungi
Ranalexin: peptide, source Bull frog (FLGGLIKIVPAMICAVTKKC; Ranalexin; listed as Rana catesbeiana)	Gram+ & Gram−, Fungi
Ranatuerin-2CA: peptide, source Green frog (GLFLDTLKGAAKDVAGKLLEGLKCKIAGCKP; Rana clamitans; Ranatuerin-2CA)	Gram+ & Gram−, Fungi
Ranatuerin-2CB: peptide, source Green frog (GLFLDTLKGLAGKLLQGLKCIKAGCKP; Rana clamitans; Ranatuerin-2CB)	Gram+ & Gram−, Fungi
RatNP-3: peptide, source Rat (CSCRTSSCRFGERLSGACRLNGRIYRLCC; RatNP-3; listed as Rattus norvegicus)	Gram+ & Gram−, Virus, Fungi
SEQ ID No. 25: synthetic antifungal peptide, Table 1 (FRF)	Fungi
SEQ ID No. 26: synthetic antifungal peptide, Table 1 (LRF)	Fungi
SEQ ID No. 27: synthetic antifungal peptide, Table 1 (WRF)	Fungi
SEQ ID No. 28: synthetic antifungal peptide, Table 1 (HRF)	Fungi
SEQ ID No. 29: synthetic antifungal peptide, Table 1 (FLRF)	Fungi
SEQ ID No. 30: synthetic antifungal peptide, Table 1 (WLRF)	Fungi
SEQ ID No. 31: synthetic antifungal peptide, Table 1 (FHLRF)	Fungi
SEQ ID No. 32: synthetic antifungal peptide, Table 1 (FFKLRF)	Fungi

Substance	Activity
SEQ ID No. 33: synthetic antifungal peptide, Table 1 (VFKLRF)	Fungi
SEQ ID No. 34: synthetic antifungal peptide, Table 1 (HFKLRF)	Fungi
SEQ ID No. 35: synthetic antifungal peptide, Table 1 (IFKLRF)	Fungi
SEQ ID No. 36: synthetic antifungal peptide, Table 1 (KRKLRF)	Fungi
SEQ ID No. 37: synthetic antifungal peptide, Table 1 (LFKLRF)	Fungi
SEQ ID No. 38: synthetic antifungal peptide, Table 1 (YFKLRF)	Fungi
SEQ ID No. 39: synthetic antifungal peptide, Table 1 (FHFKLRF)	Fungi
SEQ ID No. 42: synthetic antifungal peptide, Table 1 (RFKLRF)	Fungi
SEQ ID No. 43: synthetic antifungal peptide, Table 1 (SFKLRF)	Fungi
SEQ ID No. 44: synthetic antifungal peptide, Table 1 (MFKLRF)	Fungi
SEQ ID No. 45: synthetic antifungal peptide, Table 1 (TFKLRF)	Fungi
SEQ ID No. 46: synthetic antifungal peptide, Table 1 (QFKLRF)	Fungi
SEQ ID No. 47: synthetic antifungal peptide, Table 1 (WFKLRF)	Fungi
SEQ ID No. 175: synthetic antifungal peptide, Table 1 (WTFRYC)	Fungi
SEQ ID No. 176: synthetic antifungal peptide, Table 1 (CYRFTW)	Fungi
SEQ ID No. 177: synthetic antifungal peptide, Table 1 (GYFSYPHGNLF; listed as Glomerella cingulata)	Fungi
SEQ ID No. 178: synthetic antifungal peptide, Table 1 (WHWLQLKPGQPMY; listed as Saccharomyces cerevisiae)	Fungi
SEQ ID No. 179: synthetic antifungal peptide, Table 1 (WHWLSFSKGQPMY; listed as Saccharomyces kluyveri)	Fungi
SEQ ID No. 180: synthetic antifungal peptide, Table 1 (YNLEDHPQGDHPKLQLWHW)	Fungi
SEQ ID No. 181: synthetic antifungal peptide, Table 1 (YNLEPQGPKLQLWHW)	Fungi

Substance	Activity
SEQ ID No. 182: synthetic antifungal peptide, Table 1 (YMPQGPKLQLFHW)	Fungi
SEQ ID No. 183: synthetic antifungal peptide, Table 1 (YMPQGPKLQLWH)	Fungi
SEQ ID No. 184: synthetic antifungal peptide, Table 1 (YMPQGPRLNLWHW)	Fungi
SEQ ID No. 185: synthetic antifungal peptide, Table 1 (MSPSTKNIPAPVAGARAGPIHYCVIM; listed as Magnaporthe grisea)	Fungi
SEQ ID No. 186: synthetic antifungal peptide, Table 1 (MPSTAASTRVPQTTMNFNGYCVVM; listed as Neurospora crassa)	Fungi
SEQ ID No. 187: synthetic antifungal peptide, Table 1 (MPSNTQTSNSSMGVNGYSYCVVM; listed as Cryphonectria parasitica)	Fungi
SEQ ID No. 189: synthetic antifungal peptide, Table 1 (QWCRIHGQSCW; listed as Neurospora crassa)	Fungi
SEQ ID No. 190: synthetic antifungal peptide, Table 1 (WHWLQLKPGQPMY; listed as Saccharomyces cerevisiae)	Fungi
SEQ ID No. 191: synthetic antifungal peptide, Table 1 (WCLFHGEGCW; listed as Cryphonectria parasitica)	Fungi
SEQ ID No. 195: synthetic antifungal peptide, Table 1 (WCQQKGQPCW; listed as Fusarium graminearum)	Fungi
SEQ ID No. 196: synthetic antifungal peptide, Table 1 (WCTWKGQPCW; listed as Fusarium graminearum)	Fungi
Sativum defensin 1 (psd1): peptide, source Seed of Pea (KTCEHLADTYRGVCFTNASCDDHCKNKAHLISGTCHNWKCFCTQNC; Seed of pea defensin 1 (psd1); listed as Pisum sativum)	Fungi
Seminalplasmin: peptide, source Bovine (SDEKASPDKHHRFSLSRYAKLANRLANPKLLETFLSKWIGDRGNRSVK; Seminalplasmin; listed as Bos taurus)	Gram+ & Gram−, Fungi,; also recorded: Mammalian cells
Skin peptide tyrosine-tyrosine: peptide, source Two-colored leaf frog	Gram+ & Gram−, Fungi
Spingerin: peptide, source Pseudacanthotermes spiniger (HVDKKVADKVLLLKQLRIMRLLTRL; Pseudacanthotermas spiniger; Spingerin)	Gram+ & Gram−, Fungi
Tachystatin A: peptide, source Horseshoe Crab (YSRCQLQGFNCVVRSYGLPTIPCCRGLTCRSYFPGSTYGRCQRY; Tachystatin A Peptide; listed as Tachypleus tridentatus)	Gram+ & Gram−, Fungi
Termicin: peptide, source Pseudacanthotermes spiniger (ACNFQSCWATCQAQHSIYFRRAFCDRSQCKCVFVRG; Pseudacanthotermes spiniger; Termicin)	Gram+, Fungi
Thanatin: peptide, source Podisus maculiventris (GSKKPVPIIYCNRRTGKCQRM; listed as Podisus maculiventris)	Gram+ & Gram−, Fungi
Tracheal antimicrobial peptide: peptide, source Bovine (NPVSCVRNKGICVPIRCPGSMKQIGTCVGRAVKCCRKK; Tracheal antimicrobial peptide; listed as Bos taurus)	Gram+ & Gram−, Fungi

same assay, conditions: classes of organisms/cells the peptide is active against; cited from earlier work

Substance	Activity
Ponericin G!: peptide, source Ponerine ant (GWKDWAKKAGGWLKKKGPGMAKAALKAAMQ; Ponericin G1; listed as Pachycondyla goeldii)	Gram+ & Gram−, Fungi
Tricholongin: peptide, source Trichoderma longibrachiatum (AGFAAQAAASLAPVAAQQL; Tricholongin; listed as Trichoderma longibrachiatum)	Gram+ & Gram−, Fungi
